Legend:
Experiment in all cases: DSF selectivity screening
Format in all cases: binding
Settings in all cases: 10 μM compound
AAK1A = AAK1A (Homo sapiens, UniProt Q2M2I8)
Procedure: (§1) The assay was performed as previously described.[29],[35] Briefly, recombinant protein kinase domains at a concentration of 2 μM were mixed with a 10 μM compound in a buffer containing 20 mM HEPES, pH 7.5, and 500 mM NaCl. SYPRO Orange (5000×, Invitrogen) was added as a fluorescence probe (1 μL per mL). Subsequently, temperature-dependent protein unfolding profiles were measured using a QuantStudio 5 real-time PCR machine (Thermo Fisher). Excitation and emission filters were set to 465 and 590 nm, respectively. The temperature was raised with a step rate of 3 °C per minute. Data points were analyzed with internal software (Thermal Shift Software version 1.4, Thermo Fisher) using the Boltzmann equation to determine the inflection point of the transition curve (Table S4).

ABL1A = ABL1A (Homo sapiens, UniProt P00519)
Procedure: as §1

BMPR2A = BMPR2A (Homo sapiens, UniProt Q13873)
Procedure: as §1

CAMK1DA = CAMK1DA (Homo sapiens, UniProt Q8IU85)
Procedure: as §1

CAMK2DA = CAMK2DA (Homo sapiens, UniProt Q13557)
Procedure: as §1

CASKA = CASKA (Homo sapiens, UniProt O14936)
Procedure: as §1

CSNK1DA = CSNK1DA (Homo sapiens, UniProt P48730)
Procedure: as §1

DCAMKL1A = DCAMKL1A (Homo sapiens, UniProt O15075)
Procedure: as §1

DMPKA = DMPKA (Homo sapiens, UniProt Q09013)
Procedure: as §1

DYRK1AA = DYRK1AA (Homo sapiens, UniProt Q13627)
Procedure: as §1

DYRK2A = DYRK2A (Homo sapiens, UniProt Q92630)
Procedure: as §1

EPHA2A = EPHA2A (Homo sapiens, UniProt P29317)
Procedure: as §1

EPHA7A = EPHA7A (Homo sapiens, UniProt Q15375)
Procedure: as §1

EPHB1A = EPHB1A (Homo sapiens, UniProt P54762)
Procedure: as §1

FECH = FECH (Homo sapiens, UniProt P22830)
Procedure: as §1

FESA = FESA (Homo sapiens, UniProt P07332)
Procedure: as §1

GPRK5A = GPRK5A (Homo sapiens, UniProt P34947)
Procedure: as §1

GSG2A = GSG2A (Homo sapiens, UniProt Q8TF76)
Procedure: as §1

MAP2K6A = MAP2K6A (Homo sapiens, UniProt P52564)
Procedure: as §1

MAP2K7 = MAP2K7 (Homo sapiens, UniProt O14733)
Procedure: as §1

MAPK13A = MAPK13A (Homo sapiens, UniProt O15264)
Procedure: as §1

MAPK14A = MAPK14A (Homo sapiens, UniProt Q16539)
Procedure: as §1

MAPK15A = MAPK15A (Homo sapiens, UniProt Q8TD08)
Procedure: as §1

MAPK1A = MAPK1A (Homo sapiens, UniProt P28482)
Procedure: as §1

MAPK8B = MAPK8B (Homo sapiens, UniProt P45983)
Procedure: as §1

MARK4A = MARK4A (Homo sapiens, UniProt Q96L34)
Procedure: as §1

NEK7A = NEK7A (Homo sapiens, UniProt Q8TDX7)
Procedure: as §1

NQO2A = NQO2A (Homo sapiens, UniProt P16083)
Procedure: as §1

PDK4A = PDK4A (Homo sapiens, UniProt Q16654)
Procedure: as §1

PIM1A = PIM1A (Homo sapiens, UniProt P11309)
Procedure: as §1

PLK4A = PLK4A (Homo sapiens, UniProt O00444)
Procedure: as §1

SRCA = SRCA (Homo sapiens, UniProt P12931)
Procedure: as §1

SRPK1A = SRPK1A (Homo sapiens, UniProt Q96SB4)
Procedure: as §1

STK10A = STK10A (Homo sapiens, UniProt O94804)
Procedure: as §1

STK17AA = STK17AA (Homo sapiens, UniProt Q9UEE5)
Procedure: as §1

STK39A = STK39A (Homo sapiens, UniProt Q9UEW8)
Procedure: as §1

STK3A = STK3A (Homo sapiens, UniProt Q13188)
Procedure: as §1

TAF1A = test system: TAF1A
Procedure: as §1

TIF1A = TIF1A (Homo sapiens, UniProt O15164)
Procedure: as §1

ULK1A = ULK1A (Homo sapiens, UniProt O75385)
Procedure: as §1

ULK3A = ULK3A (Homo sapiens, UniProt Q6PHR2)
Procedure: as §1

Sequence of GSG2A (Q8TF76 465-798): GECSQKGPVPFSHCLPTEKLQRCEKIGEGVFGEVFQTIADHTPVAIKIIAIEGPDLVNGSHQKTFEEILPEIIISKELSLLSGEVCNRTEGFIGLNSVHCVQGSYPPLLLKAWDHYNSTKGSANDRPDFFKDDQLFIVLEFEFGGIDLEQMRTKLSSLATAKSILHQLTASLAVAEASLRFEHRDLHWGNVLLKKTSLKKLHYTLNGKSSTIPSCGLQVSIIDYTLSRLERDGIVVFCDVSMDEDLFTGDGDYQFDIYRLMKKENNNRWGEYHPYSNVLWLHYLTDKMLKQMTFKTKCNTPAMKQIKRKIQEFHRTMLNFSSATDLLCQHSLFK
Sequence of MAPK1A (P28482 whole entry): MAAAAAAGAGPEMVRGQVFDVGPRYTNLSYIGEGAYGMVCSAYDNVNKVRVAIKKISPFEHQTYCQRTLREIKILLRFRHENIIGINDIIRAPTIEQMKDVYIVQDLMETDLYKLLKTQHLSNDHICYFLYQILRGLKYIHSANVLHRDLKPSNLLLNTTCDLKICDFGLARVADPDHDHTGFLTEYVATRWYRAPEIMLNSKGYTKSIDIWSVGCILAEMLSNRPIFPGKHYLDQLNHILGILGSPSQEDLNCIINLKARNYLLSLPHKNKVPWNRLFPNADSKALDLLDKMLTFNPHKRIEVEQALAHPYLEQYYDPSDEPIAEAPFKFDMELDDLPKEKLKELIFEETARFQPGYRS
Sequence of MAPK13A (O15264 whole entry): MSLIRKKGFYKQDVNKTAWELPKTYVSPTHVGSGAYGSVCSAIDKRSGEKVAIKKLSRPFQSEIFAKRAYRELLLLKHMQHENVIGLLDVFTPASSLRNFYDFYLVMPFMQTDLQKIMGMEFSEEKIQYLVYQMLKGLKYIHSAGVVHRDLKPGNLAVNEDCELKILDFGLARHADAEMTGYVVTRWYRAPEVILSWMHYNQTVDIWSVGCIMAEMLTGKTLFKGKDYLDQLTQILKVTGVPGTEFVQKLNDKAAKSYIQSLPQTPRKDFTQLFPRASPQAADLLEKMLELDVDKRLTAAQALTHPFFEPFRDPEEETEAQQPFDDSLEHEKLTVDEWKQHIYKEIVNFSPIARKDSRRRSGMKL
Sequence of MAPK15A (Q8TD08 13-304): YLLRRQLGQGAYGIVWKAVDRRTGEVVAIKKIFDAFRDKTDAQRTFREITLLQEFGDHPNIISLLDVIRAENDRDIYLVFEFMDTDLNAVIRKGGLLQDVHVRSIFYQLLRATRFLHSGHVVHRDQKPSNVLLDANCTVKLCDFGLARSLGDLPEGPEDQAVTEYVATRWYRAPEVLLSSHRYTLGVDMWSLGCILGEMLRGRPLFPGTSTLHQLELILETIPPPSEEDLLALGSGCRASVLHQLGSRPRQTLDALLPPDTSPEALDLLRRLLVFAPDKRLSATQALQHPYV
Sequence of EPHB1A (P54762 602-896): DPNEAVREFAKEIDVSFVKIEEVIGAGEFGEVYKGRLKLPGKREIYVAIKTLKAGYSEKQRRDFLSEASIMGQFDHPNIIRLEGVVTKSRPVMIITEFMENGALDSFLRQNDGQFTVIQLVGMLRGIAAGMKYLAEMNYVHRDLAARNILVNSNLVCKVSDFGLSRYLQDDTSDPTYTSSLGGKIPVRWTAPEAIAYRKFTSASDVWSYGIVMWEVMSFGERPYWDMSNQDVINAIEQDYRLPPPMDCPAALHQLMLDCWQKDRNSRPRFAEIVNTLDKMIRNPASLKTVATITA
Sequence of GPRK5A (P34947 186-514): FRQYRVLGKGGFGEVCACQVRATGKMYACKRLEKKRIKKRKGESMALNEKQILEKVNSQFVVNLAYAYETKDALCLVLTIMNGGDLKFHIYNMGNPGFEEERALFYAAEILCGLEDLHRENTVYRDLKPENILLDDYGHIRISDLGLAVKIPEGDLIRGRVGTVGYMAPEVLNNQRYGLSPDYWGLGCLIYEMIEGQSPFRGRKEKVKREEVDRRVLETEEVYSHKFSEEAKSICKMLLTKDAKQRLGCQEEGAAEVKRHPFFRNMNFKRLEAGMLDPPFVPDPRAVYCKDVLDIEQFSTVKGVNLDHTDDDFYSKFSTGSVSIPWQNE
Sequence of NEK7A (Q8TDX7 34-299): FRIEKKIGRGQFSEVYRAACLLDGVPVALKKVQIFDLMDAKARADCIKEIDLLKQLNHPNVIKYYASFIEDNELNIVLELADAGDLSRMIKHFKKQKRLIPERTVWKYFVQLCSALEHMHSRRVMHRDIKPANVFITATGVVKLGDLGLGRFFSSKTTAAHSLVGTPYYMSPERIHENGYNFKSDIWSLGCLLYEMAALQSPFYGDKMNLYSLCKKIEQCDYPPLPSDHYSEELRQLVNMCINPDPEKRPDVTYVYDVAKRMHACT
Sequence of STK17AA (Q9UEE5 61-321): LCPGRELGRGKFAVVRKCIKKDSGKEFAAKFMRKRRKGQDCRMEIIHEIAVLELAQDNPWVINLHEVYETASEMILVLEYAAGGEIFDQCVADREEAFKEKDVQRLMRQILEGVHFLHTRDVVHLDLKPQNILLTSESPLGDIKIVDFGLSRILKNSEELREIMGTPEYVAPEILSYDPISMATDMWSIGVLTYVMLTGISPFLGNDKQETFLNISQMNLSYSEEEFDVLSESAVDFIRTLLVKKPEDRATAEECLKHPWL
Sequence of TIF1A (O15164 whole entry): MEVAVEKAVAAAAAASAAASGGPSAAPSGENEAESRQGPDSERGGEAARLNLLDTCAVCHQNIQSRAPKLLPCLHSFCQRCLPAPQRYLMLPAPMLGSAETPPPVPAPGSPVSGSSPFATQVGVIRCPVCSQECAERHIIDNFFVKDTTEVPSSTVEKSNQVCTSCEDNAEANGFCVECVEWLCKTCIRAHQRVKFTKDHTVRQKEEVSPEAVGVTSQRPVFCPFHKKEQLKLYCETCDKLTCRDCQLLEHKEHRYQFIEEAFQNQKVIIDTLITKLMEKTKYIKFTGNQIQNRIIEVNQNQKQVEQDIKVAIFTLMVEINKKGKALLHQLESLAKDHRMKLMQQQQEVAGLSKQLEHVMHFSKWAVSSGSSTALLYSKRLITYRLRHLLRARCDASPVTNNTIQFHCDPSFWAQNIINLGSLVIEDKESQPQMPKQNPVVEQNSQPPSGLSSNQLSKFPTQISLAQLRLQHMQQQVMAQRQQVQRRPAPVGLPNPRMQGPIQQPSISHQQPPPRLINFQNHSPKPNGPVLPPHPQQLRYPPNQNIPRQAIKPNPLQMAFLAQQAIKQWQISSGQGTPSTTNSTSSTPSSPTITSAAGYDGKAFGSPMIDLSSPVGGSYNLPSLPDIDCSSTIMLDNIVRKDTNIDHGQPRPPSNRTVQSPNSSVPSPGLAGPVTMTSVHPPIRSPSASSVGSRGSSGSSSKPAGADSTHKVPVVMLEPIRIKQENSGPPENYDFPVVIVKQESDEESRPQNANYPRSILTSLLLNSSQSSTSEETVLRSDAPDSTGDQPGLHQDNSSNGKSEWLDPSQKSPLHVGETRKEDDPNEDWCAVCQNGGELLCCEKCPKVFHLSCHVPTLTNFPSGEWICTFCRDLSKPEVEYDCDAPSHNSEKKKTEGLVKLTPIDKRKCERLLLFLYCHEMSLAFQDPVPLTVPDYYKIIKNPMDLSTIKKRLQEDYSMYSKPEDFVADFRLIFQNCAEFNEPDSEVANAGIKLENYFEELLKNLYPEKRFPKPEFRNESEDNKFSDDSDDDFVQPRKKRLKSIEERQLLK
Sequence of PDK4A (Q16654 whole entry): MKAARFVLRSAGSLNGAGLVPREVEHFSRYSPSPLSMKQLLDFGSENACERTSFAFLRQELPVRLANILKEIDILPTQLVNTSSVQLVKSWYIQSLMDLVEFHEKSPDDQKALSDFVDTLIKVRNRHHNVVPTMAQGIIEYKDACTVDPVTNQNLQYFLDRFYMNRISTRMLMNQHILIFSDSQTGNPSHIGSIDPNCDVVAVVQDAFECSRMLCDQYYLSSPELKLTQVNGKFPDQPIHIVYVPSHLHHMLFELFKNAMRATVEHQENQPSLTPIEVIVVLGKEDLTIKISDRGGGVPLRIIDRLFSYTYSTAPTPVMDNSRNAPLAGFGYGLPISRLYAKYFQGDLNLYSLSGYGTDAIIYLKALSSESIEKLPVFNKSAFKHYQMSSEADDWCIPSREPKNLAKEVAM
Sequence of ABL1A (P00519 229-500): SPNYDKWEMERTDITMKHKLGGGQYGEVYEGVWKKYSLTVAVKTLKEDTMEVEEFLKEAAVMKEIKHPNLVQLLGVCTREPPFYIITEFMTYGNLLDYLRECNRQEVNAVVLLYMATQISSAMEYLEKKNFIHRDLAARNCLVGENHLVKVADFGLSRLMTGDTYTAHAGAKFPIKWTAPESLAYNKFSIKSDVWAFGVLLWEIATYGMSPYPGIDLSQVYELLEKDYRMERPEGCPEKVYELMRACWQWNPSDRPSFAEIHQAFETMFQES
Sequence of SRPK1A (Q96SB4 whole entry): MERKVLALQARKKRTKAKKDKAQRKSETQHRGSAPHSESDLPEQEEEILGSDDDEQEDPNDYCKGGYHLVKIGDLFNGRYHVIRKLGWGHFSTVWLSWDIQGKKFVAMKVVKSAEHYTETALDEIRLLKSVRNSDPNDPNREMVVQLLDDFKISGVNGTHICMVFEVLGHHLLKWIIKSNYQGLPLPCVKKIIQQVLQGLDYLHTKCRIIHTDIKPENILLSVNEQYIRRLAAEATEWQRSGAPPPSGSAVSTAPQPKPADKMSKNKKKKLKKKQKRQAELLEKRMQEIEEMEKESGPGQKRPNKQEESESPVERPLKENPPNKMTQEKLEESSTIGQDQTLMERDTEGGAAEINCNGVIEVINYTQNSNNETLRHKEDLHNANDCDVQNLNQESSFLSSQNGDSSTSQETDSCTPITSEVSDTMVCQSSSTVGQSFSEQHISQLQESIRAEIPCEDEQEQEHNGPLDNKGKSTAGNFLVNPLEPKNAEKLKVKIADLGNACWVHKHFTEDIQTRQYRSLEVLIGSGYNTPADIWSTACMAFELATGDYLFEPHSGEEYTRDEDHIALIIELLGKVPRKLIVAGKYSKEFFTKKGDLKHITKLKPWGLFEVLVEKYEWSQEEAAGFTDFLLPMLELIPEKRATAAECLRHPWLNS

CN1C(=O)[C@@H](N2CCc3c(nn(Cc4ccccc4)c3C(N)=O)C2=O)COc2cc(Cl)ccc21 [Compound 10, (S)-2-benzyl-6-(8-chloro-5-methyl-4-oxo-2,3,4,5-tetrahydrobenzo[b][1,4]oxazepin-3-yl)-7-oxo-4,5,6,7-tetrahydro-2H-pyrazolo[3,4-c]pyridine-3-carboxamide]
ΔTm at 10 µM (AAK1A): 0.1 °C | ΔTm at 10 µM (ABL1A): -0.1 °C | ΔTm at 10 µM (BMPR2A): 0.1 °C | ΔTm at 10 µM (CAMK1DA): -0.2 °C | ΔTm at 10 µM (CAMK2DA): 0.4 °C | ΔTm at 10 µM (CASKA): 0.1 °C | ΔTm at 10 µM (CSNK1DA): 0.5 °C | ΔTm at 10 µM (DCAMKL1A): 0 °C | ΔTm at 10 µM (DMPKA): 0.1 °C | ΔTm at 10 µM (DYRK1AA): 0 °C | ΔTm at 10 µM (DYRK2A): 0.1 °C | ΔTm at 10 µM (EPHA2A): 0 °C | ΔTm at 10 µM (EPHA7A): -0.1 °C | ΔTm at 10 µM (EPHB1A): 0.1 °C | ΔTm at 10 µM (FECH): -0.6 °C | ΔTm at 10 µM (FESA): 0.1 °C | ΔTm at 10 µM (GPRK5A): -0.2 °C | ΔTm at 10 µM (GSG2A): 0.2 °C | ΔTm at 10 µM (MAP2K6A): 0.1 °C | ΔTm at 10 µM (MAP2K7): 1.1 °C | ΔTm at 10 µM (MAPK13A): -0.1 °C | ΔTm at 10 µM (MAPK14A): 0.1 °C | ΔTm at 10 µM (MAPK15A): 0 °C | ΔTm at 10 µM (MAPK1A): 0.1 °C | ΔTm at 10 µM (MAPK8B): 0.1 °C | ΔTm at 10 µM (MARK4A): -1.9 °C | ΔTm at 10 µM (NEK7A): 0 °C | ΔTm at 10 µM (NQO2A): 0.6 °C | ΔTm at 10 µM (PDK4A): 0 °C | ΔTm at 10 µM (PIM1A): -0.9 °C | ΔTm at 10 µM (PLK4A): 0.2 °C | ΔTm at 10 µM (SRCA): 0.1 °C | ΔTm at 10 µM (SRPK1A): 0 °C | ΔTm at 10 µM (STK10A): 0.4 °C | ΔTm at 10 µM (STK17AA): 0 °C | ΔTm at 10 µM (STK39A): 0.1 °C | ΔTm at 10 µM (STK3A): 0.2 °C | ΔTM (TAF1A): 0.3 K | ΔTm at 10 µM (TIF1A): 0.2 °C | ΔTm at 10 µM (ULK1A): 0.1 °C | ΔTm at 10 µM (ULK3A): 0.2 °C

From paper PMC12090182, “Repurposing of the RIPK1-Selective Benzo[1,4]oxazepin-4-one Scaffold for the Development of a Type III LIMK1/2 Inhibitor” (ACS Chemical Biology, 2025)
